# Reference: patent publication EP0387527A1, “Process for the fermentative production of L-lysine” (Degussa Aktiengesellschaft, priority 1989, dated 1990)
# Read-outs that look alike come from different tables or passages of the source.
# What was measured:
# Format in all cases: biochemical
# [1] = target: Aspartat-Kinase (AK) aus C. glutamicum DM58-1 (AEC resistente Mutante von ATCC13032) (Corynebacterium glutamicum, UniProt P26512); assay: Aspartate kinase test (hydroxamate), inhibition by effector combinations, dialysed crude extract
# Description: (§1) Die Stämme ATCC13032 und DM58-1 wurden unter direkt vergleichbaren Bedingungen in Standard I Bouillon (Merck Art. Nr. 7882) mit zusätzlichen 4 g/l Glucose und 1 mM MgCl₂ bei 30 °C und 150 rpm bis zum Erreichen der früh stationären Phase kultiviert und durch Zentrifugation vom Kulturmedium getrennt. Man wäscht 3 Mal mit 100 mM Tris/HCl (pH 7,5); 1 mM DTT und suspendiert die Feuchtzellmasse in einem Volumenteil des gleiche Puffers.
# (§2) Die so suspendierten Zellen wurden in einer Kugelmühle (B. Braun Melsungen - MSK-Homogenisator, IMA-Disintegrator S) durch Verrühren mit einer geeigneten Menge an Glasperlen aufgeschlossen. Das Zellhomogenat wurde mittels Glasfilternutsche von den Glasperlen getrennt und 30 Minuten bei 30000 x g klarzentrifugiert.
# (§3) Nach 15stündiger Dialyse in Enzym-stabilisierendem Puffer wurden die Enzymaktivitäten in folgenden Testgemischen bestimmt:
# (§4) Aspartat-Kinase Test: 100 mM Tris/HCl (pH 7,5), 1 mM DTT, 400 mM (NH₄)₂SO₄, 20 mM MgCl₂, 400 mM NH₂OH·HCl, 300 mM L-Aspartat, 40 mM ATP und verschiedene Mengen Enzympräparation. Durch Zugabe von 750 µl einer Lösung aus 10 % Fe Cl₃ 6H₂O; 3,3 % TCA; 0,7 N HCl zu 500 µl des Enzymtestgemisches wird die Enzymreaktion nach 30 minütiger Inkubation bei 37 °C gestoppt. Aus der mittels Eichkurvenverfahren photometrisch (ΔE540 nm) bestimmten Aspartyl-beta-Hydroxamat Konzentration wird die in µMol/mg·min (U/mg) angegebenen Enzymaktivität kalkuliert. Die zugehörigen Proteinkonzentrationen wurden nach der Methode von Lowry et al. (Lowry et al. J. Biol. Chem. 193, 265 (1951)) oder Bradford (Bradford Anal. Biochem. 72, 248 (1976)) durchgeführt. Der Aspartyl-β-semialdehyd Dehydrogenase Test enthält 120 mM Diethanolamin (pH 9,0); 40 mM Na AsO₄; 1 mM NADP⁺; 5 mM L-Threonin; 1,3 mM Aspartyl-beta-semialdehyd und verschiedene Mengen Enzympräparation in einem Gesamtvolumen von 1 ml. Die in µMol/mg·min (U/mg) angegebene Aktivitat wird über die photometrisch […] bestimmte NADPH Synthesegeschwindigkeit berechnet.
# (§5) Tabelle 1 zeigt, das die bereits von K. Nakayama et al. (K. Nakayama et al. Agr. Biol. Chem. 30, 611 (1966)) angedeutete und von S.N. Kara-Murza et al. (S.N. Kara-Murza Prikladnaya Biokhimiya; Mikrobiologia 14, 345 (1978)) genauer untersuchte Hemmbarkeit des C. glutamicum Wildtyp-Enzyms durch uns reproduziert werden konnte. Dem gegen-übergestellt ist der deutlich differente Charakter des Enzyms der AEC resistenten Mutante DM58-1, deren Aspartat-Kinase nicht mehr konzertiert durch L-Lysin + L-Threonin hemmbar ist. Durch die am Enzym aus ATCC13032 Lysin-analog wirkenden Substanzen S-Aminoethyl-D,L-Cystein (AEC) wird das Enzym der Mutanten ebenfalls nur noch gering beeinflußt. Tabelle 1
# [2] = target: T1, Aspartat-Kinase (AK) aus C. glutamicum ATCC13032 (Wildtyp-Enzym) (Corynebacterium glutamicum, UniProt P26512); assay: as above
# T1 construct: Rohextrakten identisch gezogener; endogenous in cells; host or cells: C. glutamicum ATCC13032, dialysed crude extract
# T1 sequence (P26512 1-421): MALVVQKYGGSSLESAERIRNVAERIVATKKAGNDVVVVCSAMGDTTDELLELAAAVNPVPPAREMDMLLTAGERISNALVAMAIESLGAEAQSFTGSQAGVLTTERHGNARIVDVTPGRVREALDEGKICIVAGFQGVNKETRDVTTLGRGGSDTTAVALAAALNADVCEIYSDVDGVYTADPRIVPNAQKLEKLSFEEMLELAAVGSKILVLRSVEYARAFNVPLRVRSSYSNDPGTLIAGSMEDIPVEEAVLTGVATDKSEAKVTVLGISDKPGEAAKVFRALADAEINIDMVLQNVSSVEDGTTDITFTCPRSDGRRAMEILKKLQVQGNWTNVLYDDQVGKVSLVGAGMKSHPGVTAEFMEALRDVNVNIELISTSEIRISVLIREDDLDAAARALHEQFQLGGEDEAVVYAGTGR
# T1 sequence (P26512 1-172 isoform P26512-2): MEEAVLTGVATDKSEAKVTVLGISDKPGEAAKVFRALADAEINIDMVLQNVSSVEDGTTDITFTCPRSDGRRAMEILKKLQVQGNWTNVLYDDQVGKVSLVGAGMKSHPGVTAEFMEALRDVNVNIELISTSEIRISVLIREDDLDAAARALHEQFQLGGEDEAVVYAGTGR
# Description: as §1, §2, §3, §4, §5
# [3] = target: Aspartat-Kinase (AK), C. glutamicum ATCC13032 (pCS23) (Corynebacterium glutamicum, UniProt P26512); assay: Aspartate kinase test, residual activity with effector combinations
# Description: as §1, §2, §3, §4
# (§6) Aspartat-Kinase-Aktivität wurde in Stamm ATCC13032/pCS2, als positive Kontrolle in Stamm DM58-1 und als negative Kontrolle in Stamm ATCC13032 gemessen. Die Stämme wurden in Standard I Bouillon, das mit 4 g/l Glucose, 10 µg/ml Kanamycin und 1 mM MgCl₂ supplementiert war, kultiviert. Kulturbedingungen, Zellernte, Zellaufschluß und Bestimmung der Aspartat-Kinase wurden, wie unter 1.2 beschrieben, durchgeführt. Die Effektoren L-Lys, L-Thr und AEC werden jeweils als Stammlösungen in 100 mM Tris/HCl Puffer mit einem pH von 7,5 zugegeben.
# (§7) Die Aspartat-Kinase-Aktivität und die Hemmbarkeit der Enzymaktivität durch Mischungen von Lysin bzw. AEC und Threonin wurde in den konstruierten Klonen bestimmt. Anzucht, Aufschluß und Aktivitätsbestimmung wurden, wie oben beschrieben, durchgeführt. Außerdem wurde die Fahigkeit der verschiedenen Klone untersucht, L-Lysin auszuscheiden. Hierfür wurde ein Agarplatten-Diffusionstest mit einem L-Lysin-auxotrophen Indikationsstamm von C. glutamicum verwendet. Aus Tabelle 4 ist zu entnehmen, daß sämtliche AEC resistenten Stämme eine partiell deregulierte Aspartat-Kinase-Aktivität besitzen und in der Lage sind, L-Lysin auszuscheiden. Tabelle 3
# [4] = target: Aspartat-Kinase (AK), C. glutamicum ATCC13032 (pCS24) (Corynebacterium glutamicum, UniProt P26512); assay: as above
# Description: as §1, §2, §3, §4, §6, §7
# [5] = target: Aspartat-Kinase (AK), C. glutamicum ATCC13032 (pCS233) (Corynebacterium glutamicum, UniProt P26512); assay: as above
# Description: as §1, §2, §3, §4, §6, §7
# [6] = target: Aspartat-Kinase (AK), C. glutamicum ATCC13032 (pCS26) (Corynebacterium glutamicum, UniProt P26512); assay: as above
# Description: as §1, §2, §3, §4, §6, §7
# [7] = target: Aspartat-Kinase (AK), C. glutamicum ATCC13032 (pCS2) (Corynebacterium glutamicum, UniProt P26512); assay: as above
# Description: as §1, §2, §3, §4, §6, §7
# [8] = target: Aspartat-Kinase (AK), C. glutamicum DM58-1 (pZ1) (Corynebacterium glutamicum, UniProt P26512); assay: as above
# Description: as §1, §2, §3, §4, §6, §7
# [9] = target: Aspartat-Kinase (AK), C. glutamicum ATCC13032 (pCS21) (Corynebacterium glutamicum, UniProt P26512); assay: as above
# Description: as §1, §2, §3, §4, §6, §7
# [10] = target: Aspartat-Kinase (AK), C. glutamicum ATCC13032 pCS22 (Corynebacterium glutamicum, UniProt P26512); assay: as above
# Description: as §1, §2, §3, §4, §6, §7
compound,measurement,setting,value
"NCCSCC(N)C(=O)O (racemic) [AEC, S-(Aminoethyl)-D,L-Cystein]",AK-Hemmung,[1]; 10 mM AEC + 1 mM L-Thr,0%
same,AK-Hemmung,[1]; 10 mM AEC + 10 mM L-Thr,0%
same,AK-Hemmung,[1]; 100 mM AEC + 10 mM L-Thr,7%
same,inhibition at 10000 µM,"[2]; 10 mM AEC + 1 mM L-Thr, read-out: AK-Hemmung",12%
same,inhibition at 10000 µM,"[2]; 10 mM AEC + 10 mM L-Thr, read-out: AK-Hemmung",41%
same,inhibition at 100000 µM,"[2]; 100 mM AEC + 10 mM L-Thr, read-out: AK-Hemmung",95%
same,AK Restaktivität (%) in Anwesenheit von 100mM AEC 10mM Thr,[3]; 100mM AEC + 10mM Thr,56%
same,AK Restaktivität (%) in Anwesenheit von 100mM AEC 10mM Thr,[4]; 100mM AEC + 10mM Thr,62%
same,AK Restaktivität (%) in Anwesenheit von 100mM AEC 10mM Thr,[5]; 100mM AEC + 10mM Thr,57%
same,AK Restaktivität (%) in Anwesenheit von 100mM AEC 10mM Thr,[6]; 100mM AEC + 10mM Thr,60%
same,AK Restaktivität (%) in Anwesenheit von 100mM AEC 10mM Thr,[7]; 100mM AEC + 10mM Thr,56%
same,AK Restaktivität (%) in Anwesenheit von 100mM AEC 10mM Thr,[8]; 100mM AEC + 10mM Thr,93%
"NCCCC[C@H](N)C(=O)O [L-Lys, L-Lysin]",AK-Hemmung,"[1]; 10 mM L-Lys + 1 mM (second inhibitor not named, L-Thr)",12%
same,AK-Hemmung,[1]; 10 mM L-Lys + 10 mM L-Thr,2%
same,AK-Hemmung,[1]; 100 mM L-Lys + 10 mM L-Thr,21%
same,inhibition at 10000 µM,"[2]; read-out: AK-Hemmung, 10 mM L-Lys + 1 mM (second inhibitor not named, L-Thr)",89%
same,inhibition at 10000 µM,"[2]; read-out: AK-Hemmung, 10 mM L-Lys + 10 mM L-Thr",95%
same,inhibition at 100000 µM,"[2]; read-out: AK-Hemmung, 100 mM L-Lys + 10 mM L-Thr",99%
same,AK Restaktivität (%) in Anwesenheit von 10mM Lys 1mM Thr,[3]; 10mM Lys + 1mM Thr,51%
same,AK Restaktivität (%) in Anwesenheit von 10mM Lys 10mM Thr,[3]; 10mM Lys + 10mM Thr,57%
same,AK Restaktivität (%) in Anwesenheit von 100mM Lys 10mM Thr,[3]; 100mM Lys + 10mM Thr,30%
same,AK Restaktivität (%) in Anwesenheit von 10mM Lys 1mM Thr,[9]; 10mM Lys + 1mM Thr,46%
same,AK Restaktivität (%) in Anwesenheit von 10mM Lys 10mM Thr,[9]; 10mM Lys + 10mM Thr,50%
same,AK Restaktivität (%) in Anwesenheit von 100mM Lys 10mM Thr,[9]; 100mM Lys + 10mM Thr,24%
same,AK Restaktivität (%) in Anwesenheit von 10mM Lys 1mM Thr,[4]; 10mM Lys + 1mM Thr,65%
same,AK Restaktivität (%) in Anwesenheit von 10mM Lys 10mM Thr,[4]; 10mM Lys + 10mM Thr,65%
same,AK Restaktivität (%) in Anwesenheit von 100mM Lys 10mM Thr,[4]; 100mM Lys + 10mM Thr,40%
same,AK Restaktivität (%) in Anwesenheit von 10mM Lys 1mM Thr,[5]; 10mM Lys + 1mM Thr,56%
same,AK Restaktivität (%) in Anwesenheit von 10mM Lys 10mM Thr,[5]; 10mM Lys + 10mM Thr,62%
same,AK Restaktivität (%) in Anwesenheit von 100mM Lys 10mM Thr,[5]; 100mM Lys + 10mM Thr,36%
same,AK Restaktivität (%) in Anwesenheit von 10mM Lys 1mM Thr,[6]; 10mM Lys + 1mM Thr,64%
same,AK Restaktivität (%) in Anwesenheit von 10mM Lys 10mM Thr,[6]; 10mM Lys + 10mM Thr,63%
same,AK Restaktivität (%) in Anwesenheit von 100mM Lys 10mM Thr,[6]; 100mM Lys + 10mM Thr,39%
same,AK Restaktivität (%) in Anwesenheit von 10mM Lys 1mM Thr,[7]; 10mM Lys + 1mM Thr,55%
same,AK Restaktivität (%) in Anwesenheit von 10mM Lys 10mM Thr,[7]; 10mM Lys + 10mM Thr,55%
same,AK Restaktivität (%) in Anwesenheit von 100mM Lys 10mM Thr,[7]; 100mM Lys + 10mM Thr,28%
same,AK Restaktivität (%) in Anwesenheit von 10mM Lys 1mM Thr,[10]; 10mM Lys + 1mM Thr,40%
same,AK Restaktivität (%) in Anwesenheit von 10mM Lys 10mM Thr,[10]; 10mM Lys + 10mM Thr,41%
same,AK Restaktivität (%) in Anwesenheit von 100mM Lys 10mM Thr,[10]; 100mM Lys + 10mM Thr,22%
same,AK Restaktivität (%) in Anwesenheit von 10mM Lys 1mM Thr,[8]; 10mM Lys + 1mM Thr,83%
same,AK Restaktivität (%) in Anwesenheit von 10mM Lys 10mM Thr,[8]; 10mM Lys + 10mM Thr,100%
same,AK Restaktivität (%) in Anwesenheit von 100mM Lys 10mM Thr,[8]; 100mM Lys + 10mM Thr,79%
